Values quoted from earlier work in patent publication US20050123576A1, “Mupirocin compositions for topical use, an improved process of making same and methods of using same” (priority 2003, published 2005).

How the values were obtained:
[1] = glycerol, mineral oil, caprylic-capric triglyceride, isopropyl myristate, isopropyl palmitate, octyl dodecanol (Eutanol G), isopropyl stearate
[2] = in the presence of water, acids and bases

## C/C(=C\C(=O)OCCCCCCCCC(=O)O)C[C@@H]1OC[C@H](C[C@@H]2O[C@H]2[C@@H](C)[C@H](C)O)[C@@H](O)[C@H]1O [Mupirocin]
[1]
  solubility in pharmaceutically acceptable carriers: insoluble
[2]
  stability (hydrolysis and rearrangement reactions): unstable
